Source: article PMC12521730, “Quantitative dual-isotope preclinical SPECT/CT imaging and biodistribution of the mercury-197m/g theranostic pair with [^197m/gHg]HgCl2 and a [^197m/gHg]Hg-tetrathiol complex as a platform for radiopharmaceutical development” (EJNMMI Radiopharmacy and Chemistry, 2025)

Assay: Ex vivo biodistribution (gamma counter)
Format: in vivo, healthy male C57BL/6 mice
Conditions: 2 h post administration
Experimental: For animal injection, the tracer was prepared at high molar activity. Radiolabeling of H4Tetrathiol (10^–2 M in DMSO; 40 μL for imaging, 20 μL for bioD) (or DMSO, for [^197m/gHg]HgCl2 mice) with [^197m/gHg]HgCl2 (imaging: 26.7 MBq total m + g, 62 μL; bioD: 13.04 MBq total m + g, 31 μL) was performed in a mixture of ammonium acetate buffer (1 M; pH 7; 198 μL for imaging or 149 μL for bioD) and 6 M NaOH (72 μL or 38 μL required to achieve a pH of 7.5 after addition of activity, for imaging or BioD labeling, respectively). The reaction was allowed to stand for 1 h at 37 °C and quantitative (> 99%) non-isolated percentage radiochemical yield (%RCY) was confirmed via the iTLC methods mentioned above. Further, 100 µL of the reaction was diluted with 50 µL of PBS Tween-20 (0.01 M sodium phosphate, 0.15 M NaCl, 0.05% Tween-20) for imaging mice, or 50 µL of the reaction was diluted with 100 µL of PBS Tween-20 for BioD mice. The tracers were prepared immediately before injection to avoid radiolysis and minimize the tracer loss to any surfaces due to its lipophilicity. The injected doses of each isomer, ^197mHg and ^197gHg, were quantified by measuring an aliquot of known volume of each tracer preparation via HPGe gamma spectroscopy and decay corrected for time of injection using the Eqs. (1) and (2).
The study was conducted in compliance with the guidelines set by the Canadian Council on Animal Care (CCAC) and approved by the Animal Care Committee (ACC) at the University of British Columbia (A20-0132). A total of eight healthy male C57BL/6 mice weighing approximately 30 g for group 1 and 25 g for group 2 were used in the study. The mice were divided into two experimental groups: group 1 (n = 4) received free [^197m/gHg]HgCl2, while group 2 (n = 4) received [^197m/gHg]Hg-Tetrathiol. Within each group, one mouse was allocated for imaging, while the rest were designated for ex vivo biodistribution analysis. For SPECT imaging, the designated mice were anesthetized using isoflurane via a precision vaporizer. […] Once anesthetized, each imaging mouse received an intravenous (IV) injection via the lateral tail vein of 150 μL of [^197m/gHg]HgCl2 (0.492 MBq ^197mHg + 3.171 MBq ^197gHg) or [^197m/gHg]Hg-Tetrathiol (0.899 MBq ^197mHg + 4.230 MBq ^197gHg) in PBS Tween-20 (0.01 M Na Phosphate, 0.15 M NaCl, 0.05% Tween-20).
Mice received an IV injection of [^197m/gHg]HgCl2 (0.275 MBq ^197mHg + 1.758 MBq ^197gHg, 150 μL) or [^197m/gHg]Hg-Tetrathiol (0.384 MBq ^197mHg + 1.733 MBq ^197gHg, 150 μL) (n = 3 per group) via the lateral tail vein using a Tailveiner restrainer. After the injection, the mice were returned to their experimental cages and allowed unrestricted movement. Biodistribution studies were conducted 2 h after administration. Mice were humanely euthanized with an overdose of isoflurane followed by cardiac puncture to collect blood pool activity. The organs of interest were fully extracted, cleaned of blood without rinsing, weighed, and analysed for radioactivity using a calibrated gamma counter with the 55–93 keV energy window for ^197gHg and the 110–160 keV energy window for ^197mHg (Packard Cobra II, Perkin Elmer, Waltham, MA, USA). The stomach and intestines were carefully cleaned prior to analysis to remove residual contents. For tissues and fluids that could not be fully removed (muscle, blood and bone) activity values were extrapolated based on standardised organ weights for age- and sex-matched mice tables to ensure accurate normalization (Davies and Morris [1993]; Foster et al. [2014]). The stomach and whole intestines were cleaned before analysis. The radioactivity measurements were decay corrected for time of injection using the Eqs. (1) and (2). The results are reported as the percentage of the injected activity per gram of tissue (%IA/g) and percentage of the injected activity per tissue (%IA/organ).

[Cl][Hg][Cl] [[^197m/gHg]HgCl2]
Animal 4 (%IA/g) g: kidneys (Hg-197g): 120 %IA/g | Animal 4 (%IA/g) g: large intestine (Hg-197g): 2.62 %IA/g | Animal 4 (%IA/g) g: liver (Hg-197g): 4.99 %IA/g | Animal 4 (%IA/g) g: lungs (Hg-197g): 3.08 %IA/g | Animal 4 (%IA/g) g: muscle (Hg-197g): 0.53 %IA/g | Animal 4 (%IA/g) g: pancreas (Hg-197g): 1.46 %IA/g | Animal 4 (%IA/g) g: small intestine (Hg-197g): 2.62 %IA/g | Animal 4 (%IA/g) g: spleen (Hg-197g): 3.58 %IA/g | Animal 4 (%IA/g) g: stomach (Hg-197g): 1.76 %IA/g | Animal 4 (%IA/g) g: tail (Hg-197g): 3.76 %IA/g | Animal 4 (%IA/g) g: urine (Hg-197g): 3.49 %IA/g | Average (%IA/Organ): bladder (Hg-197g): 0.06 %IA/Organ | Average (%IA/Organ): blood (Hg-197g): 5.81 %IA/Organ | Average (%IA/Organ): bone (Hg-197g): 4.16 %IA/Organ | Average (%IA/Organ): brain (Hg-197g): 0.05 %IA/Organ | Average (%IA/Organ): feces (Hg-197g): 0.05 %IA/Organ | Average (%IA/Organ): heart (Hg-197g): 0.25 %IA/Organ | Average (%IA/Organ): kidneys (Hg-197g): 48.31 %IA/Organ | Average (%IA/Organ): large intestine (Hg-197g): 0.57 %IA/Organ | Average (%IA/Organ): liver (Hg-197g): 7.78 %IA/Organ | Average (%IA/Organ): lungs (Hg-197g): 0.58 %IA/Organ | Average (%IA/Organ): muscle (Hg-197g): 8.08 %IA/Organ | Average (%IA/Organ): pancreas (Hg-197g): 0.25 %IA/Organ | Average (%IA/Organ): small intestine (Hg-197g): 0.70 %IA/Organ | Average (%IA/Organ): spleen (Hg-197g): 0.31 %IA/Organ | Average (%IA/Organ): stomach (Hg-197g): 0.20 %IA/Organ | Average (%IA/Organ): tail (Hg-197g): 2.59 %IA/Organ | Average (%IA/Organ): urine (Hg-197g): 0.65 %IA/Organ | Average Hg-197g (%IA/g): bladder (Hg-197g): 2.10 %IA/g | Average Hg-197g (%IA/g): blood (Hg-197g): 3.53 %IA/g | Average Hg-197g (%IA/g): bone (Hg-197g): 1.94 %IA/g | Average Hg-197g (%IA/g): brain (Hg-197g): 0.13 %IA/g | Average Hg-197g (%IA/g): feces (Hg-197g): 1.29 %IA/g | Average Hg-197g (%IA/g): heart (Hg-197g): 1.79 %IA/g | Average Hg-197g (%IA/g): kidneys (Hg-197g): 111.17 %IA/g | Average Hg-197g (%IA/g): large intestine (Hg-197g): 2.77 %IA/g | Average Hg-197g (%IA/g): liver (Hg-197g): 5.03 %IA/g | Average Hg-197g (%IA/g): lungs (Hg-197g): 3.83 %IA/g | Average Hg-197g (%IA/g): muscle (Hg-197g): 0.63 %IA/g | Average Hg-197g (%IA/g): pancreas (Hg-197g): 1.48 %IA/g | Average Hg-197g (%IA/g): small intestine (Hg-197g): 3.17 %IA/g | Average Hg-197g (%IA/g): spleen (Hg-197g): 3.93 %IA/g | Average Hg-197g (%IA/g): stomach (Hg-197g): 1.87 %IA/g | Average Hg-197g (%IA/g): tail (Hg-197g): 5.12 %IA/g | Average Hg-197g (%IA/g): urine (Hg-197g): 4.08 %IA/g | Animal 1 (%IA/g) m: bladder (Hg-197m): 1.81 %IA/g | Animal 1 (%IA/g) m: blood (Hg-197m): 8.43 %IA/g | Animal 1 (%IA/g) m: bone (Hg-197m): 3.43 %IA/g | Animal 1 (%IA/g) m: brain (Hg-197m): 0.27 %IA/g | Animal 1 (%IA/g) m: feces (Hg-197m): 1.31 %IA/g | Animal 1 (%IA/g) m: heart (Hg-197m): 3.85 %IA/g | Animal 1 (%IA/g) m: large intestine (Hg-197m): 5.33 %IA/g | Animal 1 (%IA/g) m: lungs (Hg-197m): 8.68 %IA/g | Animal 1 (%IA/g) m: muscle (Hg-197m): 1.38 %IA/g | Animal 1 (%IA/g) m: pancreas (Hg-197m): 2.69 %IA/g | Animal 1 (%IA/g) m: small intestine (Hg-197m): 6.99 %IA/g | Animal 1 (%IA/g) m: spleen (Hg-197m): 8.59 %IA/g | Animal 1 (%IA/g) m: stomach (Hg-197m): 3.64 %IA/g | Animal 1 (%IA/g) m: tail (Hg-197m): 16.30 %IA/g | Animal 1 (%IA/g) m: urine (Hg-197m): 8.15 %IA/g | Animal 2 (%IA/g) m: bladder (Hg-197m): 4.08 %IA/g | Animal 2 (%IA/g) m: blood (Hg-197m): 5.94 %IA/g | Animal 2 (%IA/g) m: bone (Hg-197m): 2.79 %IA/g | Animal 2 (%IA/g) m: brain (Hg-197m): 0.15 %IA/g | Animal 2 (%IA/g) m: feces (Hg-197m): 0.59 %IA/g | Animal 2 (%IA/g) m: heart (Hg-197m): 2.24 %IA/g | Animal 2 (%IA/g) m: large intestine (Hg-197m): 3.94 %IA/g | Animal 2 (%IA/g) m: liver (Hg-197m): 10.33 %IA/g | Animal 2 (%IA/g) m: lungs (Hg-197m): 4.50 %IA/g | Animal 2 (%IA/g) m: muscle (Hg-197m): 0.74 %IA/g | Animal 2 (%IA/g) m: pancreas (Hg-197m): 1.94 %IA/g | Animal 2 (%IA/g) m: small intestine (Hg-197m): 4.20 %IA/g | Animal 2 (%IA/g) m: spleen (Hg-197m): 4.74 %IA/g | Animal 2 (%IA/g) m: stomach (Hg-197m): 2.42 %IA/g | Animal 2 (%IA/g) m: tail (Hg-197m): 7.26 %IA/g | Animal 2 (%IA/g) m: urine (Hg-197m): 5.31 %IA/g | Animal 3 (%IA/g) m: bladder (Hg-197m): 2.14 %IA/g | Animal 3 (%IA/g) m: blood (Hg-197m): 5.50 %IA/g | Animal 3 (%IA/g) m: bone (Hg-197m): 2.67 %IA/g | Animal 3 (%IA/g) m: brain (Hg-197m): 0.17 %IA/g | Animal 3 (%IA/g) m: feces (Hg-197m): 3.93 %IA/g | Animal 3 (%IA/g) m: heart (Hg-197m): 2.10 %IA/g | Animal 3 (%IA/g) m: large intestine (Hg-197m): 3.68 %IA/g | Animal 3 (%IA/g) m: liver (Hg-197m): 10.14 %IA/g | Animal 3 (%IA/g) m: lungs (Hg-197m): 5.07 %IA/g | Animal 3 (%IA/g) m: muscle (Hg-197m): 0.79 %IA/g | Animal 3 (%IA/g) m: pancreas (Hg-197m): 2.04 %IA/g | Animal 3 (%IA/g) m: small intestine (Hg-197m): 4.50 %IA/g | Animal 3 (%IA/g) m: spleen (Hg-197m): 4.18 %IA/g | Animal 3 (%IA/g) m: stomach (Hg-197m): 2.28 %IA/g | Animal 3 (%IA/g) m: tail (Hg-197m): 7.21 %IA/g | Animal 3 (%IA/g) m: urine (Hg-197m): 5.63 %IA/g | Animal 4 (%IA/g) m: bladder (Hg-197m): 4.20 %IA/g | Animal 4 (%IA/g) m: blood (Hg-197m): 4.96 %IA/g | Animal 4 (%IA/g) m: bone (Hg-197m): 2.78 %IA/g | Animal 4 (%IA/g) m: brain (Hg-197m): 0.17 %IA/g | Animal 4 (%IA/g) m: feces (Hg-197m): 1.53 %IA/g | Animal 4 (%IA/g) m: heart (Hg-197m): 2.14 %IA/g | Animal 4 (%IA/g) m: large intestine (Hg-197m): 3.97 %IA/g | Animal 4 (%IA/g) m: liver (Hg-197m): 10.31 %IA/g | Animal 4 (%IA/g) m: lungs (Hg-197m): 4.53 %IA/g | Animal 4 (%IA/g) m: muscle (Hg-197m): 0.81 %IA/g | Animal 4 (%IA/g) m: pancreas (Hg-197m): 2.24 %IA/g | Animal 4 (%IA/g) m: small intestine (Hg-197m): 3.96 %IA/g | Animal 4 (%IA/g) m: spleen (Hg-197m): 5.42 %IA/g | Animal 4 (%IA/g) m: stomach (Hg-197m): 2.56 %IA/g | Animal 4 (%IA/g) m: tail (Hg-197m): 5.98 %IA/g | Animal 4 (%IA/g) m: urine (Hg-197m): 5.02 %IA/g | Average Hg-197m (%IA/g): bladder (Hg-197m): 3.06 %IA/g | Average Hg-197m (%IA/g): blood (Hg-197m): 6.21 %IA/g | Average Hg-197m (%IA/g): bone (Hg-197m): 2.92 %IA/g | Average Hg-197m (%IA/g): brain (Hg-197m): 0.19 %IA/g | Average Hg-197m (%IA/g): feces (Hg-197m): 1.84 %IA/g | Average Hg-197m (%IA/g): heart (Hg-197m): 2.58 %IA/g | Average Hg-197m (%IA/g): large intestine (Hg-197m): 4.23 %IA/g | Average Hg-197m (%IA/g): liver (Hg-197m): 10.26 %IA/g | Average Hg-197m (%IA/g): lungs (Hg-197m): 5.70 %IA/g | Average Hg-197m (%IA/g): muscle (Hg-197m): 0.93 %IA/g | Average Hg-197m (%IA/g): pancreas (Hg-197m): 2.23 %IA/g | Average Hg-197m (%IA/g): small intestine (Hg-197m): 4.92 %IA/g | Average Hg-197m (%IA/g): spleen (Hg-197m): 5.73 %IA/g | Average Hg-197m (%IA/g): stomach (Hg-197m): 2.72 %IA/g | Average Hg-197m (%IA/g): tail (Hg-197m): 9.19 %IA/g | Average Hg-197m (%IA/g): urine (Hg-197m): 6.03 %IA/g
